The text below walks through data of patent US20240226078A9, “ENHANCEMENT OF MICROFRACTURE FOR REPAIRING CARTILAGE DEFECTS VIA WNT INHIBITION” (University of Pittsburgh - Of the Commonwealth System of …, priority 2021, published 2024).

Structures are written as SMILES. In brackets after ≈: the same amount, converted by molar mass. Some results are limits rather than exact numbers.

Data set [1] relates to OA progression in rats. The settings on record: intraarticular, 0.3 μg dissolved in 50 μl saline (~12 nM); cited from earlier work.
Data set [2] has as its system hBMSC. The note with it: lorecivivint alone, cited from earlier work.
Data set [3] deals with humans. The note with it: cited from earlier work.
The subject of data set [4] is hBMSCs/blood clot construct. Briefly: In vitro MFx model: chondrogenesis of hBMSCs/blood clot construct. It counts as cell-based, human. The note with it: expected. The source says: The cause of post-Mfx fibrocartilage formation remains unclear. An in vitro model hereof may be used to simulate post-MFx tissue remodeling for further study and/or optimization of methodologies hereof Since harvesting human post-MFx clots is not feasible, as one of the initial steps toward human studies/clinical trials, one may simulate such a post-MFx clot by encapsulating stem cells such as hBMSCs within a clot derived from human peripheral blood as described herein. Optimization studies hereof may thus proceed via such a novel in vitro model which simulates post-MFx fibrocartilage formation (see FIG. 3) and assess treatment efficacy. As illustrated schematically in FIG. 4, to mimic the post-MFx clot, stem cells such as human bone marrow-derived stem cells (hBMSCs), the likely progenitor cells contributing to MFx repair, are encapsulated within clots derived from human peripheral blood. hBMSCs/blood clot may be differentiated using, for example, a chondroinductive factor such as insulin growth factor-1 (IGF-1), one of the major synovial fluid chondroinductive factors. The hBMSCs/blood clot may, for example, be induced to differentiate into fibrocartilage upon stimulation by IGF-1 (and/or other chondroinductive factor(s)), at physiological concentration. Application of Wnt inhibitors such lorecivivint in the model allows study of the augmentation of chondrogenesis and/or reduction of fibrosis. The hBMSCs/blood clot is thereby induced to differentiate into fibrocartilage upon such stimulation. Lorecivivint and/or other Wnt inhibitor are added to the clot to study the augmentation of chondrogenesis and reduction of fibrosis.
B. In vitro model—chondrogenesis of hBMSCs/blood clot construct. hBMSCs/blood clots may, for example, be cultured in differentiation medium containing either 0, 10, 20, 50, or 100 ng/ml IGF-1. Lorecivivint may be introduced using the concentrations described above
Preparation of hBMSCs/blood clot construct. […]

For data set [5] the following is noted: cited from earlier work.
Data set [6] relates to in vitro-expanded human chondrocytes. Briefly: Western blot analysis of human chondrocytes treated for 3 days. It counts as cell-based. The settings on record: vs saline control (FIG. 2). The source says: FIG. 2 illustrates Western blot analysis for human chondrocytes treated with saline control (CON) and lorecivivint (LRC) for 3 days.
In that regards, FIG. 3 illustrates post-MFx events including: A) clot formation; B) stem cell migration, C) fibrogenesis, D) chondrogenesis and bone healing, and E) degeneration. To facilitate rapid clinical translation, it is desirable to repurpose clinically proven. human-safe Wnt inhibitors. Specifically, the Wnt inhibitor lorecivivint (SM04690), which suppresses CDC-like kinase 2 (CLK2) and dual-specificity tyrosine phosphorylation-regulated kinase 1A (DYRK1A) as well as Wnt/β-catenin signaling, has shown promising results for knee osteoarthritis as discussed above. […] The reparative outcome of Wnt- (for example, lorecivivint-) enhanced MFx provides an avenue to achieve long-term hyaline cartilage repair with a minimally invasive and cost-effective procedure, unattainable by current surgical procedures.
In general terms: In western blotting, separated proteins are transferred to a membrane and probed.

The conditions of data set [7]: single intraarticular injection; cited from earlier work.
For data set [8], the system named is human bone marrow-derived stem cell (hBMSC)-derived cartilage. Put plainly: COL1 expression and deposition in hBMSC-derived cartilage under Wnt inhibition (gene expression, immunofluorescence). It is filed as cell-based. The source says:
FIG. 1 illustrates a comparison of COL1 gene expression in Control and Wnt inhibition (Optimized) group. […] B) Collagen type 1 detection by immunofluorescence. Control group (i-iii); Optimized group (iv-vi). […] Bar −50 μm. […] In general, as used herein small molecule (therapeutic) compounds may, for example, have a molecular weight below 1.5 kDa or below 1.0 kDa.

On to `CC(C)CC(=O)Nc1cncc(-c2ccc3[nH]nc(-c4nc5cncc(-c6cccc(F)c6)c5[nH]4)c3c2)c1` [lorecivivint], for which the OA progression result in data set [1] was “significantly ameliorates”. Besides, the COL1 expression result in data set [2] (hBMSC chondrogenesis) was “minimal”. Besides, the “initiation of hBMSC chondrogenesis” value in data set [2] was “sufficient to initiate hBMSC chondrogenesis”. Also, the safety of injection entry in data set [3] is recorded as “safe”. Besides, the COL1 immunostaining result in data set [4] (treated constructs) is listed as “absent or localized only to the marginal regions”. For the same compound, in data set [4] (vs untreated group), the “COL1, 3, FN, α-SMA expression levels” value is “significantly lower”; the “COL2, AGG, SOX9, COMP, PRG4, and COL2/COL1 expression levels” value was “higher than untreated group”. Moreover, the solubility in data set [5] is on record as roughly 5 mM (≈ 2530 µg/mL). The COL1 expression entry in data set [6] is given as “significantly reduced”. In addition, the “knee joint residence time” value in data set [7] was greater than 180 days.

As for `Oc1nc(-c2ccc(C(F)(F)F)cc2)nc2c1CSCC2` [XAV939], the chondrogenesis result in data set [8] was “without impairing chondrogenesis”. For the same compound, the COL1 expression result in data set [8] (compared to controls (FIG. 1A), p<0.05) was “significantly lowers”. Also, the COL1 protein deposition entry in data set [8] (immunofluorescence, compared to controls (FIG. 1B)) was “significantly lowers”.

For orientation: solubility means the dissolved amount per volume that the medium holds.
